Assay: Human HepG2 cell viability assay in 384 well format
Assay type: toxicity, cell-based
Design: dose 125 nL, time 70.5 hour; cytotoxicity at 70.5 h: concentration not given beside the values
Conditions: HepG2 cells, read-out: Inhibition

| Compound | cytotoxicity at 70.5 h [%] |
| --- | --- |
| Cc1sc(N)nc1-c1ccc(Cl)cc1 | 15.4 |
| CC(C)C(C)(O)CNc1cccc(F)c1C#N (stereo not given) | -7.64 |
| COCCCn1ccc(NC(=O)NCCCn2ccnc2)n1 | -18.9 |
| CCCNC(=O)Nc1ccn(CCCOC)n1 | 9.71 |
| CC(C)COC(C)C(=O)N1CCC(C)CC1 (stereo not given) | 3.43 |
| COc1ccccc1C(C)(C)NCc1ccco1 | -19.1 |
| CC(C)(C)CC(=O)Nc1ccc(S(C)(=O)=O)nc1 | -6.59 |
| CC1CCCCN1S(=O)(=O)NCc1cccnc1OC1CCCC1 (stereo not given) | -2.43 |
| O=C(Nc1ccc(Cn2cccn2)cc1)N1CCC(CO)CC1 | -5.76 |
| O=C(Nc1ccc(Cn2cccn2)cc1)N1CCC2(CC1)OCCO2 | 22.5 |
| O=C(C[S+]([O-])Cc1cccc(Cl)c1)NC1CCCC1 (stereo not given) | -3.67 |
| Cc1noc(OCCOc2cccc(C#N)c2)n1 | -3.56 |
| CCN1CCN(c2ccc(C(=O)NC(C)c3ccncc3)cc2)CC1 (stereo not given) | 6.23 |
| O=C(NCCCO)Nc1cccc(C[S+]([O-])c2ccccc2)c1 (stereo not given) | -6.37 |
| CS(=O)(=O)NCC1(c2ccccc2Br)CC1 | -5.81 |
| CCN1CCN(c2ccc(C(=O)NC(C)CCOC)cc2)CC1 (stereo not given) | 23.2 |
| CN(C)S(=O)(=O)NCC1(c2ccccc2Br)CC1 | 13.4 |
| COc1ccc(-c2ccc(C(=O)NS(C)(=O)=O)c(F)c2)c(F)c1 | -6.13 |
| Cc1nn(C)c(C)c1NC(=O)CNc1cccc(CC(F)(F)F)c1 | -1.15 |
| Cc1ccc(C(F)(F)F)cc1NCC(=O)Nc1c(C)nn(C)c1C | 11.3 |
| Cn1c(=O)oc2ccc(Nc3ncc(C#N)cc3Cl)cc21 | -2.37 |
| NC(=O)CN1CCCC1c1ccccc1Br (stereo not given) | 7.42 |
| CNC(=O)CCN1CCCC1c1ccccc1Br (stereo not given) | 28 |
| Cn1c(=O)oc2cc(Nc3ncc(C#N)cc3Cl)ccc21 | -4.36 |

| Compound | cytotoxicity at 70.5 h [%] |
| --- | --- |
| CC1(C)CN(CC(F)(F)F)CCN1CC(N)=O | -3.8 |
| CN(Cc1cncs1)C1CCN(C(=O)OC(C)(C)C)CC1 | -8.3 |
| Cc1cc(N2CCC(NC(=O)CCC3CCCO3)CC2)nc(C)n1 (stereo not given) | -5.62 |
| Cc1nc(C)c(CN(C)C2CCN(C(=O)OC(C)(C)C)CC2)s1 | -7.19 |
| CC(C(=O)NCCc1cccs1)N1CCC(n2ccnc2)CC1 (stereo not given) | -1.16 |
| COCC(NC(=O)c1ccc(O)nc1)c1ccc(C)o1 (stereo not given) | 0.572 |
| CN(CCOCC1CC1)C(=O)Cn1cccc(C(F)(F)F)c1=O | -1.06 |
| CCCN(CCC)S(=O)(=O)c1cc(NC(C)=O)ccc1C | 4.44 |
| Cc1nn(C)c(C)c1CC(=O)NCc1ccnc(OC2CCCC2)c1 | -5.31 |
| COc1ccnc(N(C)Cc2ccco2)n1 | 10.4 |
| CC(C)(C)OCCN(Cc1cccc(O)c1)C1CCC(O)CC1 (stereo not given) | -3.74 |
| CN(C(=O)CN(Cc1cccc(O)c1)C1CCC(O)CC1)C1CC1 (stereo not given) | -6.65 |
| CN1CCN(CCCN(C)S(=O)(=O)CC2CCCCC2)CC1 | -3.5 |
| C[S+]([O-])c1ccc(NC(=O)CC2=CCCCC2)cc1 (stereo not given) | -3.55 |
| COc1ccc(CN2CCNC(=O)CC2)cc1SC(F)(F)F | 1.64 |
| CCOCC(=O)NCC(C)(O)c1cc(C)oc1C (stereo not given) | -0.44 |
| CC(Cn1ccnc1)NC(=O)NCCN1CCc2ccccc2C1 (stereo not given) | 0.814 |
| CC(Cn1cccn1)NC(=O)NCCCN1CCCCCC1=O (stereo not given) | 0.306 |
| CCOC1CCN(CCc2nc(-c3cccc(Cl)c3)no2)CC1 | 16.1 |
| COCC(O)CN(C)C(=O)c1cccc(-c2csc(C)n2)c1 (stereo not given) | 1.21 |
| Cc1cc(C(C)(O)CNC(=O)c2ccc(Br)o2)c(C)o1 (stereo not given) | -0.275 |
| CCOc1ccc(CN2C(=O)CC(CC)(CC)C2=O)nc1 | 0.923 |
| Cc1cc(C(C)(O)CNC(=O)CCOCC(C)C)c(C)o1 (stereo not given) | 0.738 |
| CCCN(C)S(=O)(=O)NC(=O)c1ccc(CC)o1 | 0.645 |

| Compound | cytotoxicity at 70.5 h [%] |
| --- | --- |
| CC(Cn1cccn1)NC(=O)NCCN1CCc2ccccc2C1 (stereo not given) | 0.199 |
| CCc1cc(CNC(=O)N2Cc3ccccc3N(C)CC2C)[nH]n1 (stereo not given) | -0.192 |
| CC(C(=O)NC(C)(C)C)N1CCC(C(=O)Nc2cnccn2)CC1 (stereo not given) | -8.75 |
| Cc1cccnc1NC(=O)C1CCN(C(C)C(=O)NC(C)(C)C)CC1 (stereo not given) | -10.6 |
| Cc1noc(C)c1CN(C)C(=O)NC(C)c1cccs1 (stereo not given) | 7.59 |
| CCc1ccc(-c2nn3c(nc2=O)-c2ccccc2NC3C(=O)O)cc1 (stereo not given) | -10.4 |
| COc1cc(C)c(C(C)Nc2ncc(C(N)=O)cc2Cl)cc1OC (stereo not given) | -12.8 |
| O=C(CSc1nnc[nH]1)NCc1cccs1 | -2.74 |
| Cc1ccc(NC(=O)CS(=O)(=O)NC2CCC(C)CC2)nc1 (stereo not given) | -2.47 |
| CC1CCC(NS(=O)(=O)CC(=O)Nc2ccc(N3CCCC3)cn2)CC1 (stereo not given) | -5.53 |
| CC(CNS(=O)(=O)CCCC#N)c1ccsc1 (stereo not given) | -3.18 |
| Cc1csc(CN(C)C(=O)Nc2cc(F)cc(N3CCCC3)c2)n1 | -11.9 |
| COc1ccc(Br)cc1CCC(=O)N1CCC(O)CC1 | -4.79 |
| CC1CCC(NS(=O)(=O)CC(=O)Nc2ccccc2N2CCCC2)CC1 (stereo not given) | -1.66 |
| Cc1cc(NC(=O)Cc2ccccc2O)c[nH]c1=O | -13.3 |
| Cc1cc(NC(=O)Cc2ccccc2O)cnc1N1CCCCC1 | -12.3 |
| COc1c(CNC2(c3ccc(Cl)cc3)CCC2)c(C)nn1C | 5.64 |
| CCOCCC(=O)N(C)c1ccc(F)c(Cl)c1 | -7.99 |
| COc1ccc(Br)cc1CC(=O)N1CCCC1 | -5.85 |
| Cc1cccc(C(C)CNS(=O)(=O)CCCC#N)c1 (stereo not given) | -8.11 |
| Cc1[nH]ncc1C(=O)N(CC(C)C)CC(O)c1ccc(F)cc1 (stereo not given) | 14.2 |
| COc1cccc(COCC(=O)NC(C)c2nnc3n2CCC3)c1 (stereo not given) | 1.6 |
| CCN(C(=O)c1ccc2c(c1)OCO2)C1CC(=O)NC1=O (stereo not given) | -6.4 |
| O=C(Nc1ccccc1F)C1CSCN1C(=O)CCc1ccco1 (stereo not given) | -8.52 |

| Compound | cytotoxicity at 70.5 h [%] |
| --- | --- |
| COc1cc(-n2cccc2)c(Cl)cc1C(=O)NS(C)(=O)=O | 6 |
| CS(=O)(=O)NCCNC(=O)Cc1ccc(Br)s1 | -3.17 |
| c1csc(N2CCN(c3nccn4cnnc34)CC2)n1 | -3.57 |
| CC(C)N(C(=O)CCc1ccco1)C1CCOCC1 | -9.28 |
| COc1ccc(CCC(=O)N(C(C)C)C2CCOCC2)cc1 | -6.93 |
| Cc1ncc(CNC(=O)NC2CCN(C3CCCC3)CC2)s1 | -6.29 |
| Cc1sc(CS(C)(=O)=O)nc1-c1ccc(Cl)cc1 | 14.3 |
| Cc1nc(S(=O)(=O)N2CCSC3(CCCCC3)C2)cn1C | -4 |
| Cc1nc(S(=O)(=O)N2CCC3(CCCCC3)C2)cn1C | -1.45 |
| CCc1cnc(CNC(=O)NC2CCN(C3CCCC3)CC2)s1 | 14 |
| CC(C)CSCCCNC(=O)C1CCOCC1 | -5.98 |
| Cc1sc(CNS(N)(=O)=O)nc1-c1ccc(Cl)cc1 | -2.62 |
| O=C(c1c(O)cnc2ccccc12)N1CCCSCC1 | -1.19 |
| CC(C)CN(CC(O)c1ccc(F)cc1)C(=O)c1csnn1 (stereo not given) | 14.1 |
| O=C(c1ccc(Br)cc1F)N1CCc2ccncc21 | 3.99 |
| CCN(C(=O)CCc1ccc2[nH]ccc2c1)C1CC(=O)NC1=O (stereo not given) | -2.25 |
| Cn1cnc2cc(C(=O)NS(=O)(=O)c3ccccc3Cl)ccc21 | -2.15 |
| Cc1sc(CN)nc1-c1ccccc1 | -3.17 |
| Cc1ccc(NC(=O)N2CCCC(N(C)C)C2)c(Br)c1 (stereo not given) | -3.97 |
| Cc1cc(C(=O)N(CC(C)C)CC(O)c2ccc(F)cc2)[nH]n1 (stereo not given) | -2.51 |
| COc1ccc(C(C)NCc2cnnn2C)cc1F (stereo not given) | 2.17 |
| CC(C)CN(CC(O)c1ccc(F)cc1)C(=O)c1cc[nH]n1 (stereo not given) | -3.9 |
| CC(C)CSCCCNC(=O)C1CCC1 | -2.26 |
| CC(C)CN(CC(O)c1ccc(F)cc1)C(=O)c1cnsn1 (stereo not given) | -3.42 |

| Compound | cytotoxicity at 70.5 h [%] |
| --- | --- |
| CCc1nnc2n1CCN(Cc1nc3c(F)cccc3[nH]1)C2 | 11.8 |
| CC(=O)N(C)Cc1ccccc1NC(=O)N(C)CCc1cccs1 | -3.06 |
| COc1ccccc1CNC(C)c1cnc2cc(C)nn2c1C (stereo not given) | -1.5 |
| Cc1nonc1NC(=O)c1ccc(F)c(COCC2CC2)c1 | 11.9 |
| COC(C)(C)c1noc(C2(C#N)CCCC2)n1 | -1.33 |
| O=C(Nc1ccccc1OC(F)(F)F)C1CCS(=O)(=O)C1 (stereo not given) | -9.01 |
| c1csc(N2CCN(Cc3nnnn3C3CC3)CC2)n1 | 0.58 |
| CC(NC(=O)N1CCN(c2ncccn2)CC1)c1ccc(C#N)cc1 (stereo not given) | -4.87 |
| COc1ccc2c(c1)CCCN2C(=O)NCCc1cnn(C)c1 | -11.2 |
| COC(=O)N1CCN(CCCc2nnnn2-c2ccccc2)CC1 | 8.7 |
| CN(CCC(F)(F)F)Cc1nc2ccccc2c(=O)[nH]1 | -3.56 |
| O=C(Nc1ccccc1Oc1cccc(F)c1)C1CCS(=O)(=O)C1 (stereo not given) | -5.38 |
| Cc1n[nH]cc1CNCC(c1ccsc1)N(C)C (stereo not given) | -7.79 |
| Cn1cc(C(=O)N2C[C@@H]3CN(S(C)(=O)=O)CCO[C@@H]3C2)cn1 | -0.664 |
| CN1Cc2ccccc2CC2(CCN(C(=O)N3CCOCC3)CC2)C1=O | 24.7 |
| CCN1CCNC(=O)C12CCN(C(=O)Cc1ccsc1)CC2 | 2.23 |
| Cc1ccc(C(CNCc2c[nH]nc2C)N(C)C)cc1 (stereo not given) | 11.2 |
| CCc1ccc(CN2C[C@H](OCC(=O)N(C)C)[C@H]3COC[C@H]32)o1 | -0.34 |
| O=C1CCCN1Cc1nnc2n1CCCN(Cc1ccco1)C2 | -0.266 |
| CCc1ccc(CN2C[C@H](OC)[C@H]3COC[C@H]32)o1 | -0.659 |
| CCS(=O)(=O)N1Cc2[nH]nc(COCc3cccnc3)c2C1 | -2.23 |
| O=C(c1cscn1)N1CC[C@@H]2[C@@H]1CCN2C1CCOC1 (stereo not given in full) | -1.49 |
| CO[C@H]1CCN(Cc2ccoc2)C[C@@H]1Cc1ccccc1 | 20.5 |
| Fc1cnc(N2CCN3C[C@H](Oc4cncnc4)C[C@H]3C2)nc1 | 5.05 |

Source: ChEMBL document CHEMBL3507680, “University of Dundee, Gates Library screen for HepG2 cell viability”
